What was measured:
Format in all cases: cell-based, human
MDA-MB-231 cells [1] = test: On chip drug screening assay (ethidium homodimer 1 staining)
Description: (§1) Jurkat E6.1 cells (ATCC® TIB-152™) and MDA-MB-231 cells (ATCC® HTB-26™) were used as models for suspended and adherent cancer cell lines respectively. Jurkat cell line was derived from human acute T cell leukemia, whereas MDA-MB-231 cell line was derived from human metastatic breast adenocarcinoma.
On chip drug screening was performed using the PDMS-based microfluidic chip as described above. A 500 μL glass syringe (Hamilton, USA) and polytetrafluoroethylene (PTFE) tubings with appropriate bore (Cole Parmer, USA) was used to connect between the syringe pump (Harvard Apparatus PHD Ultra Syringe Pump, USA) and the microfluidic chip. Fluorinert® FC-40 (Sigma-Aldrich, USA) supplemented with 2% 008-Fluorosurfactant (Ran Biotechnologies, USA) was used as oil phase; relevant cell culture medium, supplemented with 1% (w/v) methyl cellulose (Sigma-Aldrich, USA) was used as aqueous phase. Cells treated with 0.1% dimethyl sulfoxide (DMSO) were used as negative control.
Briefly, cells at final concentrations of 1-2×10^6 cells per mL were aliquoted in 0.2 mL PCR tubes, then mixed with corresponding drugs and 2 μM ethidium homodimer 1 (Life Technologies, USA) by manual pipetting. Next, […], cell-drug mixtures were loaded into the tubing, consecutively segregated by oil phase at withdrawal rate of 200 μL/h by syringe pump. After loading all mixtures, the tubing was inserted into the microfluidic chip, which was back-flushed with oil phase at 500 μL/h by syringe pump. After that, the mixtures were infused at 25 μL/h by syringe pump. Finally, the inlet and outlet tubings were cut and sealed with Vaseline (Vaseline, USA). The chips were placed in 150 mm cell culture dish (Coming, USA) containing wet paper towels, and transferred to humidified incubator at 37° C. supplemented with 5% CO2 for 16-24 h incubation. Brightfield and red fluorescence images (Ex. 531/40 nm, Em. 593/40 nm) were taken under 10× magnification (Life Technologies EVOS FL Imaging System, USA).
For on chip assays, brightfield and red fluorescence images were initially processed by ImageJ v.1.50i, Cell counting was either performed manually or by Matlab v.R201.5a based on the workflow shown on FIG. 5B. Briefly, cells from brightfield and red fluorescence images were detected separately using a heuristic Hough Transformation model based on threshold implementation on circular diameter and pixel intensity. Next, each recognized cell was dissected into 10×10 pixels matrix for analysis of its pixel intensity. Subsequently, two layers of multi-radii analysis of pixel intensity around the center of each matrix distinguished signal from noise. Afterwards, cells were distinguished from noise based on the brightfield image, whereas cell viability was determined by signal intensity of corresponding red fluorescence image. Finally, positional information (defined by row: x, and column: y) and size (defined by radius: r) of discrete image matrix was used to classify each cell as “live” or “dead”. The total number of cells in each image corresponding to each droplet formation well on chip was summarized as a table in CSV format for calculation of cell viability. […]
For on chip assays, the number of cells was counted in brightfield and red fluorescence images from each well respectively. Cell viability was calculated as follows: […]
where Total cells and Dead cells referred to the total number of cells counted from brightfield and red fluorescence images, respectively. […]

Jurkat cells [2] = test: as above; settings: 16-24 h
Description: Jurkat E6.1 cells (ATCC® TIB-152™) and MDA-MB-231 cells (ATCC® HTB-26™) were used as models for suspended and adherent cancer cell lines respectively. Jurkat cell line was derived from human acute T cell leukemia, whereas MDA-MB-231 cell line was derived from human metastatic breast adenocarcinoma. On chip drug screening was performed using the PDMS-based microfluidic chip as described above. A 500 μL glass syringe (Hamilton, USA) and polytetrafluoroethylene (PTFE) tubings with appropriate bore (Cole Parmer, USA) was used to connect between the syringe pump (Harvard Apparatus PHD Ultra Syringe Pump, USA) and the microfluidic chip. Fluorinert® FC-40 (Sigma-Aldrich, USA) supplemented with 2% 008-Fluorosurfactant (Ran Biotechnologies, USA) was used as oil phase; relevant cell culture medium, supplemented with 1% (w/v) methyl cellulose (Sigma-Aldrich, USA) was used as aqueous phase. Cells treated with 0.1% dimethyl sulfoxide (DMSO) were used as negative control. […] Next, […], cell-drug mixtures were loaded into the tubing, consecutively segregated by oil phase at withdrawal rate of 200 μL/h by syringe pump. After loading all mixtures, the tubing was inserted into the microfluidic chip, which was back-flushed with oil phase at 500 μL/h by syringe pump. After that, the mixtures were infused at 25 μL/h by syringe pump. Finally, the inlet and outlet tubings were cut and sealed with Vaseline (Vaseline, USA). […] Brightfield and red fluorescence images (Ex. 531/40 nm, Em. 593/40 nm) were taken under 10× magnification (Life Technologies EVOS FL Imaging System, USA). […] For on chip assays, the number of cells was counted in brightfield and red fluorescence images from each well respectively.

Jurkat cells [3] = test: 96-well microtiter plate drug screening assay (Alamar Blue); settings: 96-well plate, 16-24 h
Description: as §1
(§2) Microtiter plate drug screening assays were carried out on 96-well clear round flat-bottom plates (Corning, USA) or 384-well white square flat-bottom plates (Corning, USA).
(§3) First, 5.0×10^5 or 1.0×10^5 cells were seeded per well for 96-well and 384-well plates respectively. Drugs were diluted with Dulbecco's phosphate-buffered saline (DPBS) (Life Technologies, USA), and subsequently added to achieve final drug concentrations as indicated on the graphs. Afterwards, the plates were transferred to humidified incubator at 37° C. supplemented with 5% CO2 for 16-24 h incubation. Finally, Alamar Blue assay was used to measure cell viability. Fluorescence intensity (Ex. 560 nm, Em. 590 nm) using auto-cutoff was measured from bottom on plate reader (Molecular Devices SpectraMax MS Plate Reader, USA). Cells treated with 0.1% dimethyl sulfoxide (DMSO) were used as negative control, while no cells were added to blank control. All experiments were performed in triplicate for 96-well plates and in quadruplicates for 384-well relates.
(§4) For microliter plate assays, average relative fluorescence signal measured by plate reader from 6 reads of each well was used as raw data point. Cell viability was calculated as follows: […]
(§5) where Sample represented raw data points of each sample well, whereas DMSO control and Blank represented average raw data points of all DMSO control and Blank wells, respectively.

MDA-MB-231 cells [4] = test: as above; settings: 96-well plate
Description: as §1, §2, §3, §4, §5

| Structure (SMILES) | IC50 (MDA-MB-231 cells [1]; Homo sapiens) [µM] | IC50 (Jurkat cells [2]; Homo sapiens) [µM] | IC50 (Jurkat cells [3]; Homo sapiens) [µM] | IC50 (MDA-MB-231 cells [4]; Homo sapiens) [µM] | IC50 (MDA-MB-231 cells [1]) [µM] | IC50 (Jurkat cells [2]) [µM] | IC50 (Jurkat cells [3]) [µM] | IC50 (MDA-MB-231 cells [4]) [µM] |
| --- | --- | --- | --- | --- | --- | --- | --- | --- |
| CC(C)C[C@H](NC(=O)[C@H](Cc1ccccc1)NC(=O)c1cnccn1)B(O)O [bortezomib] | > 10 | 22.1 | 22.1 | > 10 | – | – | – | – |
| N.N.[Cl][Pt][Cl] [cisplatin] | – | – | – | – | 4.2 | 39 | 39 | > 50 |
